Experimental data as given in US8389513B2, “2-amino-5,5-difluoro-5,6-dihydro-4H-[1,3]oxazin-4-yl)-phenyl]-amides” (Hoffmann-La Roche Inc., priority 2009, dated 2013).

Tests used:
BACE2 = biological target: T1, BACE2 (Rattus norvegicus, UniProt Q6IE75); test: Assay for BACE inhibition by measuring cellular TMEM27 cleavage; type: cell-based; conditions: INS-TMEM27 cells (INS1e-derived); shed TMEM27 by ELISA; read-out: BACE2 cell act. IC50
T1 construct: endogenous cellular BACE2 in the Ins1e rat cell line; endogenous in cells; host or cells: INS-TMEM27 (INS1e-derived rat cell line with TetOn-inducible full-length hTMEM27)
T1 sequence (Q6IE75 63-514): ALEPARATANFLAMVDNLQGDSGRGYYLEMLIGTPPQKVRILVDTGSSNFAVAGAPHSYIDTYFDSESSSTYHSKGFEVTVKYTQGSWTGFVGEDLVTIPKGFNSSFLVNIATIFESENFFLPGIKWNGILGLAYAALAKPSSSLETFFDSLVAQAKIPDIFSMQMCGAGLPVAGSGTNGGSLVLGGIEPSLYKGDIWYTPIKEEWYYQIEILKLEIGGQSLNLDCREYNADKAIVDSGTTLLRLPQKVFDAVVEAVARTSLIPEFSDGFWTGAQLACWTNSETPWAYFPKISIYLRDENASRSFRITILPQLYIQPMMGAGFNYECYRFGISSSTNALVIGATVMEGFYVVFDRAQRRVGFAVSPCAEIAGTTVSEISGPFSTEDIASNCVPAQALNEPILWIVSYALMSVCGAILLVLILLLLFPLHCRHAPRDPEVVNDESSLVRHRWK
Summary of the method: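 Ins1e-derived INS-TMEM27 rat cells with doxycycline-inducible full-length human TMEM27; inhibitor added 2 h before doxycycline (500 ng/ml final), then 46 h at 37 °C. Shed TMEM27 in supernatant quantified by sandwich ELISA with anti-human-TMEM27 antibodies; EC50 from curve fit across inhibitor concentrations.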

in vivo effect = conditions: po; % of control @ 30 mg/kg p.o.
CYP3A4 = biological target: T2, CYP3A4 (Homo sapiens, UniProt P08684); test: CYP inhibition assay, CYP3A4; type: in vitro ADME; conditions: human liver microsomes, midazolam; read-out: CYP IC50 3A4
T2 construct: 0.2 mg/ml pooled human liver microsomes; from tissue; host or cells: pooled human liver microsomes
Protocol: Inhibition of cytochromes P450 (CYPs) 2C9, 2D6 and 3A4 was assessed using human liver microsomes and CYP-selective substrate metabolism reactions. 50 μl incubations were made up containing (finally) 0.2 mg/ml pooled human liver microsomes, 5 μM substrate (diclofenac for CYP2C9 [4′ hydroxylase], dextromethorphan for CYP2D6 [O-demethylase] or midazolam for CYP3A4 [1′ hydroxylase]), 0.25 μL DMSO containing test inhibitor and NADPH regenerating system. […] Incubations were prewarmed to 37° C. for 10 minutes before initiation by addition of NADPH regenerating system. Incubations were quenched after 5 minutes (20 minutes for dextromethorphan) by addition of 50 μl cold acetonitrile containing 20 ng/ml 4-OH-diclofenac-13C6, 20 ng/mL dextrorphan-D3 and 20 ng/mL 1-OH-midazolam-D4. Quenched incubates were stored at −20° C. for at least 1 hour before centrifugation (20,000×g, 20 minutes). Supernatants were removed and diluted 1:1 with water prior to analysis using a RapidFire sample injector system and API4000 mass spectrometer. Peak areas for substrate, metabolite and stable-labelled metabolite standard were determined using MS/MS. The peak area ratios between the metabolite generated by the enzymatic reaction and the internal standard were used in subsequent calculations. The percentage of (DMSO) control activity was calculated for each incubate and IC50 values estimated by non-linear regression. Sulfaphenazole, quinidine or ketoconazole were tested in each CYP2C9, CYP2D6 or CYP3A4 inhibition experiment, respectively, to ensure assay sensitivity and reproducibility.

T2 sequence (P08684 whole entry): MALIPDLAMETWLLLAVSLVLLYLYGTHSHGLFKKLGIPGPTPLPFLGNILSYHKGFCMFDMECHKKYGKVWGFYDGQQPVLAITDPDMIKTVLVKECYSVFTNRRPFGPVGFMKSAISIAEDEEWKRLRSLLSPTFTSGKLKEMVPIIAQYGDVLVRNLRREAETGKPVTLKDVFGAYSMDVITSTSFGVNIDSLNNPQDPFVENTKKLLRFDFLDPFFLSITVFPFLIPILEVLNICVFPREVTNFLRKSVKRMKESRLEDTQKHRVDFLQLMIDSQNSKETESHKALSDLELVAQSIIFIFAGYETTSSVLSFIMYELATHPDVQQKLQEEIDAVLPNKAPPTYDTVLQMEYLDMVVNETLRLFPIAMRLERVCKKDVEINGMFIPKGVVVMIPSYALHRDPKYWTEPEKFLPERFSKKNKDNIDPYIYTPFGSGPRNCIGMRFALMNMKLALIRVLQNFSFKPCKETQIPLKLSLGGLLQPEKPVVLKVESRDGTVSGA

Row | Compound | IC50 (BACE2) [nM] | IC50 (CYP3A4) [µM] | response vs control in vivo at 30 mg/kg (in vivo effect) [%]
1 | C[C@]1(c2cc(NC(=O)c3ncc(Cl)cc3Cl)ccc2F)N=C(N)OCC1(F)F [Example 8, 3,5-Dichloro-pyridine-2-carboxylic acid [3-((R)-2-amino-5,5-difluoro-4-methyl-5,6-dihydro-4H-[1,3]oxazin-4-yl)-4-fluoro-phenyl]-amide] | 71 | > 10 | < 50
2 | C[C@]1(c2cc(NC(=O)c3ncc(C#N)cc3Cl)ccc2F)N=C(N)OCC1(F)F [Example 39, 3-Chloro-5-cyano-pyridine-2-carboxylic acid [3-((R)-2-amino-5,5-difluoro-4-methyl-5,6-dihydro-4H-[1,3]oxazin-4-yl)-4-fluoro-phenyl]-amide] | 224 | 1 to 10 | < 50
3 | C[C@]1(c2cc(NC(=O)c3ccc(Cl)cn3)ccc2F)N=C(N)OCC1(F)F [Example 1, 5-Chloro-pyridine-2-carboxylic acid [3-((R)-2-amino-5,5-difluoro-4-methyl-5,6-dihydro-4H-[1,3]oxazin-4-yl)-4-fluoro-phenyl]-amide] | 35 | > 10 | < 50

Continued, in another order:

Row | IC50 (BACE2) [nM] | IC50 (CYP3A4) [µM] | Compound | response vs control in vivo at 30 mg/kg (in vivo effect) [%]
4 | 15 | > 10 | C[C@]1(c2cc(NC(=O)c3ncc(C(F)(F)F)cc3Cl)ccc2F)N=C(N)OCC1(F)F [Example 5, 3-Chloro-5-trifluoromethyl-pyridine-2-carboxylic acid [3-((R)-2-amino-5,5-difluoro-4-methyl-5,6-dihydro-4H-[1,3]oxazin-4-yl)-4-fluoro-phenyl]-amide] | < 50
5 | 210 | > 10 | CC1(C)OC(N)=N[C@](C)(c2cc(NC(=O)c3ccc(C#N)cn3)ccc2F)C1(F)F [Example 21, 5-Cyano-pyridine-2-carboxylic acid [3-((R)-2-amino-5,5-difluoro-4,6,6-trimethyl-5,6-dihydro-4H-[1,3]oxazin-4-yl)-4-fluoro-phenyl]-amide] | < 50
6 | 1270 | > 10 | CC1(C)OC(N)=N[C@](C)(c2cc(NC(=O)c3ncc(C(F)(F)F)cc3Cl)ccc2F)C1(F)F [Example 20, 3-Chloro-5-trifluoromethyl-pyridine-2-carboxylic acid [3-((R)-2-amino-5,5-difluoro-4,6,6-trimethyl-5,6-dihydro-4H-[1,3]oxazin-4-yl)-4-fluoro-phenyl]-amide] | < 50
7 | 175 | 1 to 10 | CC1(C)OC(N)=N[C@](C)(c2cc(NC(=O)c3ncc(C#N)cc3Cl)ccc2F)C1(F)F [Example 22, 3-Chloro-5-cyano-pyridine-2-carboxylic acid [3-((R)-2-amino-5,5-difluoro-4,6,6-trimethyl-5,6-dihydro-4H-[1,3]oxazin-4-yl)-4-fluoro-phenyl]-amide] | < 50
